Data from patent US9080214B2, “Genetic markers for efficacy of iloperidone in the treatment of psychotic symptoms” (Vanda Pharmaceuticals, Inc., priority 2007, dated 2015).

Tested on: individuals diagnosed with schizophrenia
Experiment: Change in PANSS-P subscale by SNP genotype, patients on iloperidone 24 mg/day b.i.d. for 28 days (MMRM)
Format: in vivo, human
Excerpt: Earlier studies investigated an association between a polymorphism in the CNTF gene and iloperidone efficacy as well as associations between CYP2D6 and KCNQ1 genotypes and changes in QT interval following the administration of iloperidone. The present study involved the genotyping of DNA samples collected from 426 individuals diagnosed with schizophrenia in an attempt to identify additional SNPs associated with iloperidone efficacy. Each sample was genotyped at more than 500,000 SNP loci using the GeneChip® Human Mapping 500K Array Set (Affymetrix, Santa Clara, Calif.) and using assays developed in-house. Approximately half of the participants in the study were administered 24 mg/day of iloperidone, b.i.d., for 28 days. About 25% of the patients were administered ziprasidone. The remaining participants were administered a placebo. Three analyses of the PANSS-T were conducted. 1) A two-step approach where samples were randomly split into 2 groups of iloperidone-treated patients used to discover SNPs associated with changed in PANSS-T (Discovery phase) and a second group to confirm the 100 most significant SNPs (Confirmatory phase). 2) A one-step approach using the Last Observation Carried Forward (LOCF) PANSS-T data of all iloperidone-treated patients. For each SNP, the most parsimonious genetic model (e.g., homozygous for one allele v. all other genotypes [i.e., AA v. AB and BB], heterozygous v. homozygous [i.e., AB v. AA and BB]) was established with respect to iloperidone efficacy using a one-way analysis of variance (ANOVA). 3) A Mixed-effects Model Repeated Measures (MMRM) analysis was subsequently conducted using the best genetic model of each SNP in the MMRM model. MMRM analyses were also conducted with the PANSS subscales PANSS-P, PANSS-N, and PANSS-GP. The SNPs with a statistically significant association in all 3 analyses of PANSS-T, as well as the best of each analysis were considered significant findings and are listed below in Table 1. Results for each of these SNPs with the PANSS-T scales and with the three subscales PANSS-P, PANSS-N, and PANSS-GP are shown in Tables 2, 3, 4, and 5, respectively. […] In the present case of iloperidone efficacy, it is likely that different markers are more specifically associated with one or a few specific clinical symptoms, which is reflected in the improvement measured in separate subscales.

Compound: COc1cc(C(C)=O)ccc1OCCCN1CCC(c2noc3cc(F)ccc23)CC1 [iloperidone, 1-[4-[3-[4-(6-fluoro-1,2-benzisoxazol-3-yl)-1-piperidinyl]propoxy]-3-methoxyphenyl]ethanone]
- mean of change in PANSS-P (SNP_A-1819750 (CREG1) genotype A_A): −5.31
- mean of change in PANSS-P (SNP_A-1819750 (CREG1) genotype A_B*): −4.28
- mean of change in PANSS-P (SNP_A-1819750 (CREG1) genotype B_B): −5.02
- mean of change in PANSS-P (SNP_A-1819750 (CREG1) genotype nonAB**): −5.11
- mean of change in PANSS-P (SNP_A-1860353 (RAP1B) genotype A_A**): −9.20
- mean of change in PANSS-P (SNP_A-1860353 (RAP1B) genotype A_B): −4.42
- mean of change in PANSS-P (SNP_A-1860353 (RAP1B) genotype B_B): −4.28
- mean of change in PANSS-P (SNP_A-1860353 (RAP1B) genotype nonAA*): −4.30
- mean of change in PANSS-P (SNP_A-1934663 genotype A_A): −5.65
- mean of change in PANSS-P (SNP_A-1934663 genotype A_B): −5.78
- mean of change in PANSS-P (SNP_A-1934663 genotype B_B*): −3.40
- mean of change in PANSS-P (SNP_A-1934663 genotype nonBB**): −5.75
- mean of change in PANSS-P (SNP_A-1973093 (KIAA0040) genotype A_A): −5.12
- mean of change in PANSS-P (SNP_A-1973093 (KIAA0040) genotype A_B*): −2.58
- mean of change in PANSS-P (SNP_A-1973093 (KIAA0040) genotype B_B): −5.64
- mean of change in PANSS-P (SNP_A-1973093 (KIAA0040) genotype nonAB**): −5.54
- mean of change in PANSS-P (SNP_A-1975928 (SLC2A9) genotype A_A): −4.60
- mean of change in PANSS-P (SNP_A-1975928 (SLC2A9) genotype A_B): −4.79
- mean of change in PANSS-P (SNP_A-1975928 (SLC2A9) genotype B_B*): 6.19
- mean of change in PANSS-P (SNP_A-1975928 (SLC2A9) genotype nonBB**): −4.65
- mean of change in PANSS-P (SNP_A-1987915 (GPR126) genotype A_A): −3.53
- mean of change in PANSS-P (SNP_A-1987915 (GPR126) genotype A_B): −3.43
- mean of change in PANSS-P (SNP_A-1987915 (GPR126) genotype B_B**): −5.95
- mean of change in PANSS-P (SNP_A-1987915 (GPR126) genotype nonBB*): −3.45
- mean of change in PANSS-P (SNP_A-2007721 (LOC58486) genotype A_A): −1.70
- mean of change in PANSS-P (SNP_A-2007721 (LOC58486) genotype A_B**): −7.48
- mean of change in PANSS-P (SNP_A-2007721 (LOC58486) genotype B_B): −3.42
- mean of change in PANSS-P (SNP_A-2007721 (LOC58486) genotype nonAB*): −3.41
- mean of change in PANSS-P (SNP_A-2044214 (HNT) genotype A_A): −5.77
- mean of change in PANSS-P (SNP_A-2044214 (HNT) genotype A_B*): −2.08
- mean of change in PANSS-P (SNP_A-2044214 (HNT) genotype B_B): −5.64
- mean of change in PANSS-P (SNP_A-2044214 (HNT) genotype nonAB**): −5.73
- mean of change in PANSS-P (SNP_A-2048427 (NPAS3) genotype A_A): −6.16
- mean of change in PANSS-P (SNP_A-2048427 (NPAS3) genotype A_B): −6.26
- mean of change in PANSS-P (SNP_A-2048427 (NPAS3) genotype B_B*): −3.61
- mean of change in PANSS-P (SNP_A-2048427 (NPAS3) genotype nonBB**): −6.24
- mean of change in PANSS-P (SNP_A-2070454 (NKX2-5) genotype A_A): −4.04
- mean of change in PANSS-P (SNP_A-2070454 (NKX2-5) genotype A_B): −3.89
- mean of change in PANSS-P (SNP_A-2070454 (NKX2-5) genotype B_B**): −5.75
- mean of change in PANSS-P (SNP_A-2070454 (NKX2-5) genotype nonBB*): −3.94
- mean of change in PANSS-P (SNP_A-2076797 (NUDT9P1) genotype A_A): −2.57
- mean of change in PANSS-P (SNP_A-2076797 (NUDT9P1) genotype A_B**): −6.55
- mean of change in PANSS-P (SNP_A-2076797 (NUDT9P1) genotype B_B): −2.27
- mean of change in PANSS-P (SNP_A-2076797 (NUDT9P1) genotype nonAB*): −2.42
- mean of change in PANSS-P (SNP_A-2103099 (HTR1A) genotype A_A): −6.05
- mean of change in PANSS-P (SNP_A-2103099 (HTR1A) genotype A_B*): −2.88
- mean of change in PANSS-P (SNP_A-2103099 (HTR1A) genotype B_B): −5.88
- mean of change in PANSS-P (SNP_A-2103099 (HTR1A) genotype nonAB**): −5.95
- mean of change in PANSS-P (SNP_A-2120958 genotype A_A): −4.97
- mean of change in PANSS-P (SNP_A-2120958 genotype A_B): −4.92
- mean of change in PANSS-P (SNP_A-2120958 genotype B_B*): 1.49
- mean of change in PANSS-P (SNP_A-2120958 genotype nonBB**): −4.95
- mean of change in PANSS-P (SNP_A-2170121 (C6) genotype A_A): −3.49
- mean of change in PANSS-P (SNP_A-2170121 (C6) genotype A_B**): −6.98
- mean of change in PANSS-P (SNP_A-2170121 (C6) genotype B_B): −4.26
- mean of change in PANSS-P (SNP_A-2170121 (C6) genotype nonAB*): −3.56
- mean of change in PANSS-P (SNP_A-2274533 (LZTS1) genotype A_A**): −5.34
- mean of change in PANSS-P (SNP_A-2274533 (LZTS1) genotype A_B): −2.64
- mean of change in PANSS-P (SNP_A-2274533 (LZTS1) genotype B_B): −2.63
- mean of change in PANSS-P (SNP_A-2274533 (LZTS1) genotype nonAA*): −2.63
- mean of change in PANSS-P (SNP_A-2283283 (XKR4) genotype A_A*): −1.85
- mean of change in PANSS-P (SNP_A-2283283 (XKR4) genotype A_B): −4.92
- mean of change in PANSS-P (SNP_A-2283283 (XKR4) genotype B_B): −5.41
- mean of change in PANSS-P (SNP_A-2283283 (XKR4) genotype nonAA**): −5.12
- mean of change in PANSS-P (SNP_A-2284243 (GRIA4) genotype A_A): −5.09
- mean of change in PANSS-P (SNP_A-2284243 (GRIA4) genotype A_B): −5.09
- mean of change in PANSS-P (SNP_A-2284243 (GRIA4) genotype B_B*): −2.11
- mean of change in PANSS-P (SNP_A-2284243 (GRIA4) genotype nonBB**): −5.09
- mean of change in PANSS-P (SNP_A-4204396 (CDH13) genotype A_A): −4.76
- mean of change in PANSS-P (SNP_A-4204396 (CDH13) genotype A_B): −4.99
- mean of change in PANSS-P (SNP_A-4204396 (CDH13) genotype B_B*): 1.63
- mean of change in PANSS-P (SNP_A-4204396 (CDH13) genotype nonBB**): −4.85
- mean of change in PANSS-P (SNP_A-4212785 (PPP1R3B) genotype A_A*): 4.95
- mean of change in PANSS-P (SNP_A-4212785 (PPP1R3B) genotype A_B): −4.78
- mean of change in PANSS-P (SNP_A-4212785 (PPP1R3B) genotype B_B): −4.70
- mean of change in PANSS-P (SNP_A-4212785 (PPP1R3B) genotype nonAA**): −4.73
- mean of change in PANSS-P (SNP_A-4230979 (ASB3) genotype A_A): −2.80
- mean of change in PANSS-P (SNP_A-4230979 (ASB3) genotype A_B): −3.63
- mean of change in PANSS-P (SNP_A-4230979 (ASB3) genotype B_B**): −5.84
- mean of change in PANSS-P (SNP_A-4230979 (ASB3) genotype nonBB*): −3.45
- mean of change in PANSS-P (SNP_A-4256833 (MLCK) genotype A_A): −4.59
- mean of change in PANSS-P (SNP_A-4256833 (MLCK) genotype A_B*): −2.78
- mean of change in PANSS-P (SNP_A-4256833 (MLCK) genotype B_B): −5.14
- mean of change in PANSS-P (SNP_A-4256833 (MLCK) genotype nonAB**): −5.10
- mean of change in PANSS-P (SNP_A-4258279 (RRM1) genotype A_A): −5.01
- mean of change in PANSS-P (SNP_A-4258279 (RRM1) genotype A_B*): −0.85
- mean of change in PANSS-P (SNP_A-4258279 (RRM1) genotype B_B): −5.25
- mean of change in PANSS-P (SNP_A-4258279 (RRM1) genotype nonAB**): −5.24
